Source: patent publication US5443986A, “Enzymatic analysis using substrates that yield fluorescent precipitates” (Molecular Probes, Inc., priority 1993, dated 1995)

Assays:
[1] = target: T1, alkaline phosphatase (Bos taurus, UniProt P19111); assay type: biochemical; parameters: mature GPI-type homodimer; settings: 0.1M TRIS pH 10.3, 50 mM NaCl, 10 mM MgCl2, 0.1 mM ZnCl2; double-reciprocal plot
Procedure: As compared with other synthetic substrates, the fluorogenic precipitating substrates described in this invention normally have high enzymatic turnover rates and moderate affinities for the enzymes. Turnover rates of the substrates can be determined as in Example 10 and expressed as micromoles of product per minute per milligram protein (k2, in units of μmol·min^-1 ·mg^-1). The affinity of the substrate is determined by its dissociation constant, KM, in millimolar units. The enzymes can bind to and catalyze conversion of the soluble substrates into detectable reaction products that are apparently less soluble and will precipitate in aqueous solutions. The preferred detectable reaction products are fluorescent precipitates. The precipitation, however, and thus fluorescence, depends on the reaction product concentration or the initial substrate concentration used, as well as the ionization state of the product's phenol group. There are two parameters determining the precipitation, i.e. critical concentration (Mc) and pH dependence (pKa). A method for determination of these parameters is given in Example 11. Table 10 gives the relevant parameters for the enzymatic reaction and precipitation of quinazolinone-based alkaline phosphatase substrates.
4). Kinetic assay of some of the substrates. The specific activity (k2, in a unit of micromole per minute per milligram protein) and Michaelis constant (KM, in a unit of millimole) for hydrolysis of the substrates by the enzyme are listed in Table 10. All of the specific enzymatic reactions are made in the following buffers:
For alkaline phosphatase: 0.1M TRIS pH 10.3 containing 50 mM NaCl, 10 mM MgCl2 and 0.1 mM ZnCl2.
Because the kinetic assay involves variable amounts of precipitate with variable light scattering, measurement in the fluorometer as described above cannot be used here. Instead, a fluorescence plate reader with front-face measurement geometry such as the CytoFluor™ 2300 (Millipore, Bedford, Mass.) is preferred for quantitating the precipitate. The following protocol illustrates the kinetic assay.
4.1 ). In a 96-well plate, pipette 200 μL of a phosphatase substrate in the alkaline phosphatase reaction buffer with a final concentration of 2 to 6 mM, then add 50 μL 1 mg/mL alkaline phosphatase. […] Fluorescence of the precipitate is measured in the CytoFluor with appropriate sensitivity and excitation and emission settings as have been determined with the fluorometer. The fluorescence signal versus the amount of the precipitate is then established for each substrate.
4.2). […] Read the fluorescence of the resulting precipitate after 10 minutes reaction time and calculate the precipitate formation rate per minute by use of the determined fluorescence signal versus the amount of the precipitate. […]

[2] = Critical concentration (Mc) for precipitation of the enzymatic product; assay type: physicochemical; settings: product of hydrolysis by excess alkaline phosphatase, 0.1M TRIS pH 10.3
Procedure: 2D) Critical concentration: Various concentrations of 2-(4'-methoxy-2'-phosphoryloxyphenyl)quinazolinone (3e) were reacted with 50 μL of excess alkaline phosphatase in 200 μL solution of 0.1M TRIS≥pH 10.3 containing 50 mM NaCl, 10 mM MgCl2 and 0.1 mM ZnCl2. The resulting precipitate and fluorescence were measured in a CytoFluor fluorescence plate reader (Millipore) with excitation at 360 nm, emission at 460 nm using sensitivity setting 3.
3). Determination of the critical concentration and pH dependence for the precipitation. The critical concentration (Mc, in units of mmoles) and the pH dependence (pKa) for precipitation are both important parameters for judging the precipitation properties of the enzymatic products obtained from the subject substrates. Below the critical concentration the product will not be detected as a fluorescent precipitate. Obviously these two parameters contribute to the precipitation in a correlated way. As a simple approach, one may define the critical concentration as the concentration necessary for the precipitation at a high pH where all of the phenol group is ionized. Similarly, acidification by lowering the pH results in precipitation at a concentration below the critical concentration that is obtained at high pH to an extent that is related to the pKa of the phenolic group. It is a characteristic of the preferred substrates that only the product precipitate is fluorescent. In this case the precipitate is quantitated by its fluorescence which results in a correlation of the fluorescence with the degree of precipitation.
To obtain the critical concentration for one product the phosphatase substrate (1e) (200 μL) in a 96-well plate is added to 0.1M TRIS, pH 10.3, containing 50 mM NaCl, 10 mM MgCl2 and 0.1 mM ZnCl2 to yield a final concentration of 0.1 to 10 mM. 50 μL of a 1 mg/mL solution of alkaline phosphatase is then added. The fluorescence development is complete after 5 minutes as measured in using a CytoFluor™ 2300 fluorescence plate reader (Millipore, Bedford, Mass.). A concentration showing appreciable fluorescence is determined as the critical concentration.

[3] = target: Alkaline phosphatase conjugated goat anti-rabbit antibodies (Bos taurus, UniProt P19111); test: Western blot immunodetection of subunit II of bovine heart cytochrome c oxidase with a phosphatase substrate; assay type: biochemical
Alkaline phosphatase conjugated goat anti-rabbit antibodies, sequence (P19111 20-506 limits assumed): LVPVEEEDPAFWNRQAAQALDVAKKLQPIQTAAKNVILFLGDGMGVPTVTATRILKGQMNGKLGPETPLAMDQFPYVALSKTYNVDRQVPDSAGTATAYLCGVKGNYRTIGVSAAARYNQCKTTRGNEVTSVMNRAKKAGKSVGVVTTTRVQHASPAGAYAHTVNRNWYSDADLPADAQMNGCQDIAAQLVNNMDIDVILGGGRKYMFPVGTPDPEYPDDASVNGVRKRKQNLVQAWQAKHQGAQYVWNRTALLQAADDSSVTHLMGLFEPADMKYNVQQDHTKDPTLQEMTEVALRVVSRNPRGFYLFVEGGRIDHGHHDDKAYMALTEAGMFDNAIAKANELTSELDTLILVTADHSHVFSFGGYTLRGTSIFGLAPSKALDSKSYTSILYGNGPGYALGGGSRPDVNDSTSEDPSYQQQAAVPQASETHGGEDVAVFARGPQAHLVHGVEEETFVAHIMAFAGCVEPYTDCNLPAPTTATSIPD
Procedure: 1.1. Cytochrome c oxidase from the bovine heart mitochondrial inner membrane is highly purified according to the method of Capaldi and Hayashi, FEBS LETT 26, 4229-4238 (1972).
1.2. 50 μl of pure cytochrome c oxidase (20 mg/ml) is dissolved in a dissociation buffer to a final concentration of 1 mg/ml for electrophoresis.
1.3. An 18% acrylamide gel containing 6M urea, 0.1% SDS is used for gel electrophoresis according to a procedure published by Zhang, Lindorfer and Capaldi, BIOCHEMISTRY, 27, 1389-1394 (1988). 15 μg of protein is loaded onto each lane. The subunits of cytochrome c oxidase are separated during electrophoresis (there are 13 different subunits in bovine cytochrome c oxidase).
2.3. Protein samples in both B and C, resolved in SDS-gel electrophoresis, are semi-dry transferred onto a nitrocellulose membrane following a standard electrophoretic elution procedure published by Harlow and Lane, ANTIBODIES, A LABORATORY MANUAL, Cold Spring Harbor Lab (1988).
3.1. The nitrocellulose membrane is incubated with a polyclonal antibody that is specific for Subunit II of Cytochrome C oxidase (final antibody concentration: 20 μg/ml) at room temperature for 12 hours with agitation.
3.2. The membrane is incubated with the enzyme-labeled secondary antibody at room temperature for 1 hour with agitation. Alkaline phosphatase conjugated goat anti-rabbit antibodies are used with 1:3000 dilution in TTBS buffer containing 1% nonfat milk.
3.4. Membrane B is incubated in the phosphatase substrate BCIP/NBT (BioRad), while C is incubated with the fluorogenic, phosphatase substrate 1e.

[4] = target: T1, alkaline phosphatase; test: Fluorescence and light scattering on hydrolysis of the substrate (FIG. 2B, 2C); assay type: biochemical; parameters: mature GPI-type homodimer; settings: 10 μg/mL alkaline phosphatase, 20 seconds
Procedure: 2B) Coexistence of fluorescence and precipitation: 5 mM 2-(4'-methoxy-2'-phosphoryloxyphenyl)quinazolinone (3e), in 0.1M TRIS pH 10.3 containing 50 mM NaCl, 10 mM MgCl2 and 0.1 mM ZnCl2, yields 210 units of fluorescence by action of 10 μg/mL alkaline phosphatase in 20 seconds. The fluorescence can be eliminated by addition of 0.6% Triton X-100 as a result of precipitate dissolution.
2C) Light-scattering increase as a result of precipitation: 2 mM 2-(4'-methoxy-2'-phosphoryloxyphenyl)quinazolinone (3e) scattering increases from 450 units to beyond the detection limit of 1000 units in 20 seconds by action of 10 μg/mL alkaline phosphatase, showing rapid formation of a precipitate. The enzymatic reaction was in 0.1M TRIS pH 10.3 containing 50 mM NaCl, 10 mM MgCl2 and 0.1 mM ZnCl2. The scattering measurement was made in a Perkin-Elmer LS-50 fluorometer with 5 nm slits and a coincident excitation and emission wavelength of 420 nm.

[5] = target: β-galactosidase from E. coli (Escherichia coli, UniProt P00722); test: Detection of enzymatic activity in chromatographic fractions, galactosidase peak; assay type: biochemical; settings: 5 μL of 5 mg/mL substrate added to 25 μL fraction, pH 7.0
β-galactosidase from E. coli, sequence (P00722 2-1024): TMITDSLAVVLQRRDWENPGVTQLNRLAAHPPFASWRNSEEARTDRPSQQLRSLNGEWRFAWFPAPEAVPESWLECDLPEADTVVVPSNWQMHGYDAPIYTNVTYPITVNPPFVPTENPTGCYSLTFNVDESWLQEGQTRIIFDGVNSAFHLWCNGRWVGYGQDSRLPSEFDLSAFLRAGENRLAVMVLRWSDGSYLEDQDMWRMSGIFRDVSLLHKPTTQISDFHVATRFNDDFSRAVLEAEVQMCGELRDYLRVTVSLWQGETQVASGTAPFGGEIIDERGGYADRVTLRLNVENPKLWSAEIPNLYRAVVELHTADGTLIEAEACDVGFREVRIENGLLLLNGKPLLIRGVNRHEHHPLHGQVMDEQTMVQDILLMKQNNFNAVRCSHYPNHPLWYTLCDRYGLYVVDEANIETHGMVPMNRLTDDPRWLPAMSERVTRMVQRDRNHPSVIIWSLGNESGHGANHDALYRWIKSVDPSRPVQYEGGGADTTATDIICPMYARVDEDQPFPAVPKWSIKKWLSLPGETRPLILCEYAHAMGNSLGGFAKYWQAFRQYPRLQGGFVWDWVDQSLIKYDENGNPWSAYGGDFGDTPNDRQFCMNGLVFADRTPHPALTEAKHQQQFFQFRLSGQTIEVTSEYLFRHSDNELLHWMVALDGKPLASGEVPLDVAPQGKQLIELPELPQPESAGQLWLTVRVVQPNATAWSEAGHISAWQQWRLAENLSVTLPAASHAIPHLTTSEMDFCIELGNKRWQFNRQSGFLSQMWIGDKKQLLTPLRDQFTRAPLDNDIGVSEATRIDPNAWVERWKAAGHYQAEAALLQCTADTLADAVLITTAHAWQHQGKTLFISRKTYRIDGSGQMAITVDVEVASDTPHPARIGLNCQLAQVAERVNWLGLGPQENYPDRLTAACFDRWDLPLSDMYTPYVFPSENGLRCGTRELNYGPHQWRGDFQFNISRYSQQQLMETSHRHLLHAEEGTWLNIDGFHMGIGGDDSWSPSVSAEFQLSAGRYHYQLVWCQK
Procedure: (§1) β-galactosidase from E. coli (MW 540,000, approximately 1 mg) and β-glucuronidase from E. coli (MW 280,000, approximately 1 mg) are dissolved in 25 μL of 0.1M phosphate, pH 7,0 containing 0.11M 2-mercaptoethanol and 1 mM MgCl2 and chromatographed on a 1×35 cm column of BioGel A 1.5M equilibrated with the same buffer. Detection of the protein absorption at 280 nm is used to detect isolated protein fractions. […] To 25 μL aliquots of each fraction, is separately added 5 μL of a 5 mg/mL aqueous solution of 2-(5'-methoxy-2'-galactopyranosyl)phenyl-4-(3H)-quinazolone (3h) or 2-(2-O-β-D-glucopyranosiduronic acid)-4-(3H)-quinazolone (4h).

[6] = target: β-glucuronidase from E. coli (Escherichia coli, UniProt P05804); test: Detection of enzymatic activity in chromatographic fractions, glucuronidase peak; assay type: biochemical; settings: 5 μL of 5 mg/mL substrate added to 25 μL fraction, pH 7.0
β-glucuronidase from E. coli, sequence (P05804 whole entry): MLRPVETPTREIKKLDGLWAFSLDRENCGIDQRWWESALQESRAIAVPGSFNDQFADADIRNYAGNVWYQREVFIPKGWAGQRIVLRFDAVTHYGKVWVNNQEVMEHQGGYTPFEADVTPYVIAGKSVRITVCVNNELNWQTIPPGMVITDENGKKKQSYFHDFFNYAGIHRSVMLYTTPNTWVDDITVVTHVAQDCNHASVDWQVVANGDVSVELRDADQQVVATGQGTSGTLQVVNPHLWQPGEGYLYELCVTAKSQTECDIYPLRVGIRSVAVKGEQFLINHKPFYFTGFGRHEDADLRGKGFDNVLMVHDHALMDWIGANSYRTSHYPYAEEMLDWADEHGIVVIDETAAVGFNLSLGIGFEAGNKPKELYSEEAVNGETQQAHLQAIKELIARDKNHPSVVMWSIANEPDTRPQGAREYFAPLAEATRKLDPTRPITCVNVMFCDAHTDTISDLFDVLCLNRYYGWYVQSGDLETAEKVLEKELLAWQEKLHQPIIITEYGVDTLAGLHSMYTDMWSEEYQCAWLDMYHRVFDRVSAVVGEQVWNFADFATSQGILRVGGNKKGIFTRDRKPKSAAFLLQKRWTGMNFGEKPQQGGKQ
Procedure: as §1

T1 sequence (P19111 20-506): as the sequence (P19111 20-506 limits assumed) above

Row | Structure (SMILES) | k2 (specific activity, turnover rate) [1] [µmol/min/mg] | Mc (critical concentration for precipitation) [2] [mM] | other results
1 | O=c1[nH]c(-c2ccccc2OP(=O)(O)O)nc2ccccc12 [1e, 2-phenyl] | 188.81 | 1.5 | persistence of the stain on the membrane ([3]; membrane kept in a dry Petri dish): still fluorescent after 3 days; incubation time after which the immunoreactive band is visualized ([3]; nitrocellulose membrane): 30 min; staining of other transferred bands ([3]; nitrocellulose membrane): No other transferred bands are stained
2 | COc1cc(OC)c(OP(=O)(O)O)c(-c2nc3ccccc3c(=O)[nH]2)c1 [2-(3',5'-dimethoxyphenyl)] | 215.60 | 0.3 | –
3 | COc1ccc(OP(=O)(O)O)c(-c2nc3ccccc3c(=O)[nH]2)c1 [2e, 2-(5'-methoxyphenyl)] | – | 0.8 | –
4 | COc1ccc(-c2nc3ccccc3c(=O)[nH]2)c(OP(=O)(O)O)c1 [3e, 2-(4'-methoxy-2'-phosphoryloxyphenyl)quinazolinone] | – | 2.5 | light scattering after action of alkaline phosphatase ([4]; 2 mM substrate, starts at 450 units, detection limit 1000 units, 420 nm): > 1000 units; fluorescence yielded by action of alkaline phosphatase ([4]; 5 mM substrate, 0.1M TRIS pH 10.3): 210 units
5 | COc1ccc(O[C@@H]2O[C@H](CO)[C@H](O)[C@H](O)[C@H]2O)c(-c2nc3ccccc3c(=O)[nH]2)c1 [3h, 2-(5'-methoxy-2'-galactopyranosyl)phenyl-4-(3H)-quinazolone] | – | – | fluorescent precipitate formation in fractions of the first peak (β-galactosidase) [5]: Visible yellow fluorescent precipitate formation occurs; fluorescent precipitate formation in fractions of the second peak (β-glucuronidase) [6]: No cross reactivity is observed
6 | O=C(O)[C@H]1O[C@@H](Oc2ccccc2-c2nc3ccccc3c(=O)[nH]2)[C@H](O)[C@@H](O)[C@@H]1O [4h, 2-(2-O-β-D-glucopyranosiduronic acid)-4-(3H)-quinazolone] | – | – | fluorescent precipitate formation in fractions of the first peak (β-galactosidase) [5]: No cross reactivity is observed; fluorescent precipitate formation in fractions of the second peak (β-glucuronidase) [6]: visible formation of a green fluorescent precipitate occurs
7 | COc1ccc(OP(=O)(O)O)c(-c2nc3ccc(Cl)cc3c(=O)[nH]2)c1 [5e, 2-(5'-methoxyphenyl)-6-chloro] | – | 1.2 | –
8 | O=c1[nH]c(-c2ccccc2OP(=O)(O)O)nc2ccc([N+](=O)[O-])cc12 [6e, 2-phenyl-6-nitro] | 150.66 | 1.2 | –
9 | O=c1[nH]c(-c2cc(Cl)ccc2OP(=O)(O)O)nc2ccccc12 [9e, 2-(5'-chlorophenyl)] | – | 0.4 | –
